Source: the supplement of paper PMC10627819

Columns and labels:
S. aureus DSM 20231 [1] = assay: Bliss interaction score (quartile over a dose matrix) (fitness difference); higher = more antagonism (negative = synergy)
Outline: (§1)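 Fitness was defined as normalised growth: OD595 at the start of stationary phase divided by the plate's robust no-drug mean and capped at 1. Single-drug fitness was inferred from combination measurements. The Bliss score is observed fitness minus the product of the single-drug values, summarised by quartiles across technical, biological and donor/recipient replicates.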

S. aureus Newman = assay: as above
Outline: as §1

S. pneumoniae D39V [2] = assay: as above
Outline: as §1

B. subtilis 168 [3] = assay: as above
Outline: as §1

S. aureus DSM 20231 [4] = assay: fitness (endpoint OD595 vs no drug) (fraction); higher = more growth
Outline: (§2)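 Bacterial fitness was scored as optical density at the stationary-phase transition relative to the robust mean of no-drug control wells. Scores are capped at 1. The growth data were OD595 readings every 30 min for 14 h at 37 °C, background-subtracted against the first reading, from 384-well plates inoculated at OD595 0.01 in TSB, LB Lennox or CY.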

S. pneumoniae D39V [5] = assay: as above
Outline: as §2

B. subtilis 168 [6] = assay: as above
Outline: as §2
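For Bliss interaction score (quartile over a dose matrix) in this document: first quartile when negative (synergy) and third quartile when positive (antagonism).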
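For fitness (endpoint OD595 vs no drug) in this document: OD595 on entry to stationary phase over no-drug wells; at most 1.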

CC(=O)NC[C@H]1CN(c2ccc(N3CCOCC3)c(F)c2)C(=O)O1 [Linezolid] + Cc1onc(-c2ccccc2)c1C(=O)N[C@@H]1C(=O)N2[C@@H]1SC(C)(C)[C@@H]2C(=O)O [Oxacillin]
Settings	Bliss interaction score
B. subtilis 168 [3]	0.0403
S. aureus DSM 20231 [1]	-0.0365
S. aureus Newman	-0.0461
S. pneumoniae D39V [2]	0.136

Settings	fitness
B. subtilis 168 [6], first compound 0.125 µg/mL, partner 0.002 µg/mL	0.567
B. subtilis 168 [6], first compound 0.125 µg/mL, partner 0.004 µg/mL	0.513
B. subtilis 168 [6], first compound 0.125 µg/mL, partner 0.008 µg/mL	0.515
B. subtilis 168 [6], first compound 0.25 µg/mL, partner 0.002 µg/mL	0.112
B. subtilis 168 [6], first compound 0.25 µg/mL, partner 0.004 µg/mL	0.108
B. subtilis 168 [6], first compound 0.25 µg/mL, partner 0.008 µg/mL	0.102
B. subtilis 168 [6], first compound 0.5 µg/mL, partner 0.002 µg/mL	0.0413
B. subtilis 168 [6], first compound 0.5 µg/mL, partner 0.004 µg/mL	0.0471
B. subtilis 168 [6], first compound 0.5 µg/mL, partner 0.008 µg/mL	0.0549
S. aureus DSM 20231 [4], first compound 0.125 µg/mL, partner 0.0156 µg/mL	0.791
S. aureus DSM 20231 [4], first compound 0.125 µg/mL, partner 0.0312 µg/mL	0.665
S. aureus DSM 20231 [4], first compound 0.125 µg/mL, partner 0.0625 µg/mL	0.52
S. aureus DSM 20231 [4], first compound 0.25 µg/mL, partner 0.0156 µg/mL	0.52
S. aureus DSM 20231 [4], first compound 0.25 µg/mL, partner 0.0312 µg/mL	0.501
S. aureus DSM 20231 [4], first compound 0.25 µg/mL, partner 0.0625 µg/mL	0.415
S. aureus DSM 20231 [4], first compound 0.5 µg/mL, partner 0.0156 µg/mL	0.21
S. aureus DSM 20231 [4], first compound 0.5 µg/mL, partner 0.0312 µg/mL	0.188
S. aureus DSM 20231 [4], first compound 0.5 µg/mL, partner 0.0625 µg/mL	0.156
S. pneumoniae D39V [5], first compound 0.105 µg/mL, partner 0.01 µg/mL	0.917
S. pneumoniae D39V [5], first compound 0.105 µg/mL, partner 0.02 µg/mL	0.872
S. pneumoniae D39V [5], first compound 0.105 µg/mL, partner 0.04 µg/mL	0.42
S. pneumoniae D39V [5], first compound 0.2 µg/mL, partner 0.01 µg/mL	0.78
S. pneumoniae D39V [5], first compound 0.2 µg/mL, partner 0.02 µg/mL	0.764
S. pneumoniae D39V [5], first compound 0.2 µg/mL, partner 0.04 µg/mL	0.594
S. pneumoniae D39V [5], first compound 0.21 µg/mL, partner 0.01 µg/mL	0.791
S. pneumoniae D39V [5], first compound 0.21 µg/mL, partner 0.02 µg/mL	0.704
S. pneumoniae D39V [5], first compound 0.21 µg/mL, partner 0.04 µg/mL	0.382
S. pneumoniae D39V [5], first compound 0.4 µg/mL, partner 0.01 µg/mL	0.623
S. pneumoniae D39V [5], first compound 0.4 µg/mL, partner 0.02 µg/mL	0.609
S. pneumoniae D39V [5], first compound 0.4 µg/mL, partner 0.04 µg/mL	0.431
S. pneumoniae D39V [5], first compound 0.42 µg/mL, partner 0.01 µg/mL	0.63
S. pneumoniae D39V [5], first compound 0.42 µg/mL, partner 0.02 µg/mL	0.564
S. pneumoniae D39V [5], first compound 0.42 µg/mL, partner 0.04 µg/mL	0.175
S. pneumoniae D39V [5], first compound 0.8 µg/mL, partner 0.04 µg/mL	0.218

one replicate
Settings	fitness
B. subtilis 168 [6], first compound 0.0625 µg/mL, partner 0.0078 µg/mL	0.913
B. subtilis 168 [6], first compound 0.0625 µg/mL, partner 0.0155 µg/mL	0.809
B. subtilis 168 [6], first compound 0.0625 µg/mL, partner 0.031 µg/mL	0.81
B. subtilis 168 [6], first compound 0.125 µg/mL, partner 0.0078 µg/mL	0.594
B. subtilis 168 [6], first compound 0.125 µg/mL, partner 0.0155 µg/mL	0.553
B. subtilis 168 [6], first compound 0.125 µg/mL, partner 0.031 µg/mL	0.529
B. subtilis 168 [6], first compound 0.125 µg/mL, partner 0.075 µg/mL	0.611
B. subtilis 168 [6], first compound 0.125 µg/mL, partner 0.15 µg/mL	0.0387
B. subtilis 168 [6], first compound 0.125 µg/mL, partner 0.3 µg/mL	0.0501
B. subtilis 168 [6], first compound 0.25 µg/mL, partner 0.0078 µg/mL	0.0705
B. subtilis 168 [6], first compound 0.25 µg/mL, partner 0.0155 µg/mL	0.0604
B. subtilis 168 [6], first compound 0.25 µg/mL, partner 0.031 µg/mL	0.0611
B. subtilis 168 [6], first compound 0.25 µg/mL, partner 0.075 µg/mL	0.241
B. subtilis 168 [6], first compound 0.25 µg/mL, partner 0.15 µg/mL	0.0531
B. subtilis 168 [6], first compound 0.25 µg/mL, partner 0.3 µg/mL	0.0536
B. subtilis 168 [6], first compound 0.5 µg/mL, partner 0.075 µg/mL	0.0447
B. subtilis 168 [6], first compound 0.5 µg/mL, partner 0.15 µg/mL	0.0563
B. subtilis 168 [6], first compound 0.5 µg/mL, partner 0.3 µg/mL	0.0594
S. aureus DSM 20231 [4], first compound 1 µg/mL, partner 0.0156 µg/mL	0.0486
S. aureus DSM 20231 [4], first compound 1 µg/mL, partner 0.0312 µg/mL	0.0427
S. aureus DSM 20231 [4], first compound 1 µg/mL, partner 0.0625 µg/mL	0.0557

CN[C@@H]1[C@H](O)[C@H](NC)[C@H]2O[C@@]3(O)C(=O)C[C@@H](C)O[C@H]3O[C@@H]2[C@H]1O [Spectinomycin] + COc1cc(Cc2cnc(N)nc2N)cc(OC)c1OC [Trimethoprim]
Settings	Bliss interaction score
B. subtilis 168 [3]	-0.0925
S. aureus DSM 20231 [1]	0.0932
S. aureus Newman	0.0863
S. pneumoniae D39V [2]	-0.161

fitness, one replicate
Settings	first compound 2 µg/mL	first compound 4 µg/mL	first compound 8 µg/mL	first compound 32 µg/mL	first compound 64 µg/mL
B. subtilis 168 [6], partner 0.1 µg/mL	0.871	0.821	0.686	–	–
B. subtilis 168 [6], partner 0.125 µg/mL	0.707	0.606	0.414	–	–
B. subtilis 168 [6], partner 0.2 µg/mL	0.781	0.762	0.386	–	–
B. subtilis 168 [6], partner 0.4 µg/mL	0.473	0.556	0.223	–	–
B. subtilis 168 [6], partner 1 µg/mL	0.508	0.338	0.167	–	–
B. subtilis 168 [6], partner 2 µg/mL	0.408	0.187	0.0702	–	–
S. aureus DSM 20231 [4], partner 0.125 µg/mL	–	0.808	0.822	0.629	0.026
S. aureus DSM 20231 [4], partner 0.25 µg/mL	–	–	–	0.573	0.0208
S. aureus DSM 20231 [4], partner 0.5 µg/mL	–	–	–	0.299	0.0374

fitness
Settings	first compound 4 µg/mL	first compound 8 µg/mL	first compound 16 µg/mL
B. subtilis 168 [6], partner 0.25 µg/mL	–	0.482	–
B. subtilis 168 [6], partner 0.5 µg/mL	0.496	0.308	–
S. aureus DSM 20231 [4], partner 0.125 µg/mL	–	–	0.654
S. aureus DSM 20231 [4], partner 0.25 µg/mL	0.598	0.593	0.649
S. aureus DSM 20231 [4], partner 1 µg/mL	0.0368	0.0298	0.0188
